Consider four molecules from patent publication US8679459B2, “B ring reduced-D ring oxidized tetrapyrrolic photosensitizers for photodynamic therapy and tumor imaging” (Health Research, Inc., priority 2008, dated 2014).

One assay has as its system Colon-26 cells. The experiment in a line: In vitro photosensitizing efficacy (MTT assay). It counts as cell-based. The settings on record: for in vitro photosensitizing efficacy among all the compounds tested (fraction survival vs. light dose): 24 h incubation, light 0-2 J/cm^2, MTT; for PDT efficacy compared to the free base analogs: In(III) complex vs. free base. The method, then:
In graphs A-E, Y=fraction surviving and X=Light dose in J/cm^2. The numbers in the legends refer to compound number in FIGS. 7-12.
In vitro Photosensitizing Efficacy (MTT Assay]: Colon-26 cells were grown in α-DMEM with 10% fetal calf serum, and penicillin and streptomycin. Cells were maintained in 5% CO2 and 95% air at 100% humidity. For phototoxicity studies, cells were placed in 96-well plates at a density of 5×10^4 cells/well, in complete medium. 24 h later, compounds were added at variable concentration. After 24 incubation in the dark at 37° C., the cells were irradiated with a laser light from an argon pumped dye laser using flunces of 0-2 J/cm^2 at a dose of 5.6 mW/cm^2. After PDT, the cells were washed once, placed in complete medium, and incubated for 48 h. Cells were incubated with 10 μL/well of 4 mg/mL MTT for the final 4 h. The MTT-containing medium was removed, and 100 μL DMSO was added to solubilize the formazan crystals. The absorbance of the wells was read on a microtiter plate reader at a wavelength of 560 nm.^10 The results were plotted as fraction survival vs. the light dose used at the same concentrations. […] These compounds are currently being evaluated for in vivo efficacy, where the pharmacokinetic and the pharmacodynamic properties of the molecules will have a significant impact in efficacy.
(Formazan colour is commonly taken as a measure of viable cells.)

The conditions of assay [1]: earlier work; cited from earlier work.

As to `CC[C@H]1/C2=C/c3c(C)c4c5[n]3[In]([Cl])[n]3/c(c(C)c(C(C)=O)/c3=C/C(=N2)[C@@H]1C)=C\C1=NC(=C\5CC4=O)/C(CCC(=O)OC)=C1C` [compound 22], in the assay with Colon-26 cells, the “in vitro photosensitizing efficacy among all the compounds tested (fraction survival vs. light dose)” value is reported as “most effective” and the “PDT efficacy compared to the free base analogs” value is recorded as “enhanced PDT efficacy”. For the molecule “3-(1-hexyloxyethyl)-3-devinyl-pyropheophorbide-a [compound 3a]”, in assay [1], the “PDT activity among alkyl ether analogs of pyropheophorbide-a” value is “most effective”. For the molecule `CC[C@H]1/C2=C/c3c(C)c4c5[n]3[In]([Cl])[n]3/c(c(C)c(C(C)=O)/c3=C/C(=N2)[C@@H]1C)=C\C1=NC(=C\5CC4=O)/[C@@H](CCC(=O)OC)[C@@H]1C` [compound 23], the “in vitro photosensitizing efficacy among all the compounds tested (fraction survival vs. light dose)” value with Colon-26 cells is on record as “most effective”. As for `CCCCCCOC(C)c1c(C)/c2[n]3/c1=C\C1=NC(=C\c4c(C)c5c([n]4[In]3[Cl])/C(=C3N=C(\C=2)C(C)=C\3CCC(=O)OC)CC5=O)/[C@H](CC)[C@H]1C` (some centres unmarked) [compound 24], the “PDT efficacy compared to the free base analogs” value in the assay on Colon-26 cells was “enhanced PDT efficacy”.
